The values that follow are results of earlier work, collected in PMC8287861 (Frontiers in Microbiology, 2021).

What all share (design): method as in Lomovskaya et al. (2020b)
One data set has as its system PAM4792 OXA-2. The conditions noted are these: PAM4792, OXA-2, class D; ref Lomovskaya et al. (2020b).
For a further data set, the system named is PAM4196 IMP-13. The conditions noted are these: PAM4196, IMP-13, class B1; ref Lomovskaya et al. (2020b).
Another data set deals with PAM4880 L1. The note with it: PAM4880, L1, class B3; ref Lomovskaya et al. (2020b).
For a further data set, the system named is PAM4744 SME-2. The conditions noted are these: PAM4744, SME-2, class A-CARB; ref Lomovskaya et al. (2020b).
The subject of the next data set is PAM4186 CMY-2. The note with it: PAM4186, CMY-2, class C; ref Lomovskaya et al. (2020b).
The next data set relates to PAM4910 VEB-2. The note with it: PAM4910, VEB-2, class A; ref Lomovskaya et al. (2020b).
For another data set, the system named is PAM4907 PER-4. The conditions noted are these: PAM4907, PER-4, class A; ref Lomovskaya et al. (2020b).
For a further data set, the system named is PAM4800 GES-19. The note with it: PAM4800, GES-19, class A; ref Lomovskaya et al. (2020b).
Another data set concerns PAM4877 OXA-58. The conditions noted are these: PAM4877, OXA-58, class D-CARB; ref Lomovskaya et al. (2020b).
Another data set deals with PAM4819 CTX-M-2. The note with it: PAM4819, CTX-M-2, class A; ref Lomovskaya et al. (2020b).
The test system of another data set is PAM4884 ADC-181. The note with it: PAM4884, ADC-181, class C; ref Lomovskaya et al. (2020b).
For a further data set, the system named is PAM4798 VIM-2. The note with it: PAM4798, VIM-2, class B1; ref Lomovskaya et al. (2020b).
In another data set the test system is PAM4175 pUCP24 vector. The note with it: ref Lomovskaya et al. (2020b).
In a further data set the test system is PAM4689 KPC-3. The conditions noted are these: PAM4689, KPC-3, class A-CARB; ref Lomovskaya et al. (2020b).
A further data set has as its system PAM4875 OXA-23. The conditions noted are these: PAM4875, OXA-23, class D-CARB; ref Lomovskaya et al. (2020b).
For a further data set, the system named is PAM4864 SFC-1. The note with it: PAM4864, SFC-1, class A-CARB; ref Lomovskaya et al. (2020b).
For another data set, the system named is PAM4883 GIM-1. The note with it: PAM4883, GIM-1, class B1; ref Lomovskaya et al. (2020b).
The next data set deals with PAM4135 KPC-2. The conditions noted are these: PAM4135, KPC-2, class A-CARB; ref Lomovskaya et al. (2020b).
For another data set, the system named is PAM4676 BKC-1. The note with it: PAM4676, BKC-1, class A-CARB; ref Lomovskaya et al. (2020b).
The test system of the next data set is PAM4876 OXA-72. The conditions noted are these: PAM4876, OXA-72, class D-CARB; ref Lomovskaya et al. (2020b).
For another data set, the system named is PAM4917 NDM-7. The conditions noted are these: PAM4917, NDM-7, class B1; ref Lomovskaya et al. (2020b).
The next data set relates to PAM4795 VIM-1. The note with it: PAM4795, VIM-1, class B1; ref Lomovskaya et al. (2020b).
Another data set concerns PAM4874 SHV-12. The conditions noted are these: PAM4874, SHV-12, class A; ref Lomovskaya et al. (2020b).
The test system of the next data set is PAM4827 OXA-1. The note with it: PAM4827, OXA-1, class D; ref Lomovskaya et al. (2020b).

Structures are written as SMILES. In brackets after ≈: the same amount, converted by molar mass.

Take `CC(C)(O/N=C(\C(=O)N[C@@H]1C(=O)N2C(C(=O)[O-])=C(C[n+]3ccccc3)CS[C@H]12)c1csc(N)n1)C(=O)O` [Ceftazidime, ceftazidime]: the MIC was 8 µg/mL (≈ 14.6 µM) in the data set on PAM4792 OXA-2; 64 µg/mL (≈ 117 µM) with PAM4196 IMP-13; 64 µg/mL (≈ 117 µM) in the data set on PAM4880 L1; 0.5 µg/mL (≈ 0.915 µM) in the data set with PAM4744 SME-2; 16 µg/mL (≈ 29.3 µM) in the data set on PAM4186 CMY-2; >64 µg/mL with PAM4910 VEB-2. In addition, the MIC was >64 µg/mL with PAM4907 PER-4; >64 µg/mL with PAM4800 GES-19; 0.25 µg/mL (≈ 0.457 µM) in the data set with PAM4877 OXA-58; 1 µg/mL (≈ 1.83 µM) in the data set on PAM4819 CTX-M-2; 8 µg/mL (≈ 14.6 µM) in the data set with PAM4884 ADC-181; 16 µg/mL (≈ 29.3 µM) in the data set with PAM4798 VIM-2. The minimum inhibitory concentration (MIC) in the data set on PAM4175 pUCP24 vector is 0.25 µg/mL (≈ 0.457 µM); in the data set on PAM4689 KPC-3 it was >64 µg/mL; in the data set on PAM4875 OXA-23, 0.25 µg/mL (≈ 0.457 µM); in the data set on PAM4864 SFC-1, 2 µg/mL (≈ 3.66 µM); in the data set on PAM4883 GIM-1, >64 µg/mL; in the data set with PAM4135 KPC-2, 16 µg/mL (≈ 29.3 µM). The MIC in the data set with PAM4676 BKC-1 was 3 µg/mL (≈ 5.49 µM); with PAM4876 OXA-72, 0.25 µg/mL (≈ 0.457 µM); in the data set with PAM4917 NDM-7, >64 µg/mL; with PAM4795 VIM-1, 64 µg/mL (≈ 117 µM); in the data set with PAM4874 SHV-12 it was >64 µg/mL.

`CCN1CCN(C(=O)N[C@@H](C(=O)N[C@@H]2C(=O)N3[C@@H]2SC(C)(C)[C@@H]3C(=O)O)c2ccccc2)C(=O)C1=O` [Piperacillin, piperacillin]: the MIC in the data set on PAM4792 OXA-2 was 64 µg/mL (≈ 124 µM); with PAM4196 IMP-13 it was 0.5 µg/mL (≈ 0.966 µM); in the data set with PAM4880 L1, 32 µg/mL (≈ 61.8 µM); in the data set with PAM4744 SME-2, 8 µg/mL (≈ 15.5 µM); in the data set with PAM4186 CMY-2, 8 µg/mL (≈ 15.5 µM); in the data set with PAM4910 VEB-2, 16 µg/mL (≈ 30.9 µM). Also, the MIC is 0.5 µg/mL (≈ 0.966 µM) in the data set with PAM4907 PER-4; 4 µg/mL (≈ 7.73 µM) in the data set on PAM4827 OXA-1; 8 µg/mL (≈ 15.5 µM) with PAM4800 GES-19; 4 µg/mL (≈ 7.73 µM) in the data set on PAM4877 OXA-58; 64 µg/mL (≈ 124 µM) in the data set on PAM4819 CTX-M-2; 1 µg/mL (≈ 1.93 µM) in the data set with PAM4884 ADC-181. Also, the MIC is 16 µg/mL (≈ 30.9 µM) in the data set on PAM4798 VIM-2; 0.125 µg/mL (≈ 0.242 µM) in the data set on PAM4175 pUCP24 vector; >64 µg/mL in the data set on PAM4689 KPC-3; 16 µg/mL (≈ 30.9 µM) with PAM4875 OXA-23; >64 µg/mL in the data set with PAM4864 SFC-1; >64 µg/mL in the data set with PAM4883 GIM-1. For the same compound, the MIC was >64 µg/mL in the data set on PAM4135 KPC-2; 32 µg/mL (≈ 61.8 µM) in the data set on PAM4676 BKC-1; 16 µg/mL (≈ 30.9 µM) with PAM4876 OXA-72; 32 µg/mL (≈ 61.8 µM) in the data set with PAM4917 NDM-7; 16 µg/mL (≈ 30.9 µM) with PAM4795 VIM-1; >64 µg/mL in the data set on PAM4874 SHV-12.
